Data: ChEMBL document CHEMBL1201862, “PubChem BioAssay data set” (2004)
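1) Cells in 96-well plates. 2) Compound, 48 h, 5 concentrations. 3) Linear interpolation between surrounding doses. 4) Unreached endpoint = highest concentration. The concentration for 50% growth inhibition is given as GI50.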 Calls of active or inactive are those of the source. Cut-off read from the data, not from the text of the source: active = GI50 up to about 1.1 µM and inactive = higher.

Columns and labels:
Test in all cases: inhibition of tumour cell growth, NCI panel, 48 h
UACC-257 = test system: UACC-257
SK-MEL-5 = test system: SK-MEL-5
T47D = test system: T47D
HCT-15 = test system: HCT-15
SR = test system: SR
SK-OV-3 = test system: SK-OV-3
RPMI-8226 = test system: RPMI-8226
MOLT-4 = test system: MOLT-4
HOP-92 = test system: HOP-92
SW-620 = test system: SW-620
NCI-H460 = test system: NCI-H460
SNB-75 = test system: SNB-75
EKVX = test system: EKVX
M14 = test system: M14
U-251 = test system: U-251
K562 = test system: K562
HL-60 = test system: HL-60
ACHN = test system: ACHN
COLO 205 = test system: COLO 205
LOX IMVI = test system: LOX IMVI
Malme-3M = test system: Malme-3M
SK-MEL-28 = test system: SK-MEL-28
OVCAR-3 = test system: OVCAR-3
NCI-H522 = test system: NCI-H522
MDA-MB-435 = test system: MDA-MB-435
Hs-578T = test system: Hs-578T
PC-3 = test system: PC-3
786-0 = test system: 786-0
MDA-N = test system: MDA-N
IGROV-1 = test system: IGROV-1
DU-145 = test system: DU-145
HCC 2998 = test system: HCC 2998
TK-10 = test system: TK-10
A498 = test system: A498
NCI-H226 = test system: NCI-H226
OVCAR-4 = test system: OVCAR-4
SNB-19 = test system: SNB-19
HCT-116 = test system: HCT-116
SK-MEL-2 = test system: SK-MEL-2
KM12 = test system: KM12
OVCAR-5 = test system: OVCAR-5
A549 = test system: A549
HOP-62 = test system: HOP-62
NCI-H23 = test system: NCI-H23
SF-268 = test system: SF-268
CAKI-1 = test system: CAKI-1
OVCAR-8 = test system: OVCAR-8
UO-31 = test system: UO-31
MCF7 = test system: MCF7
HT-29 = test system: HT-29
UACC-62 = test system: UACC-62
SF-539 = test system: SF-539
CCRF-CEM = test system: CCRF-CEM
SN12C = test system: SN12C
MDA-MB-231 = test system: MDA-MB-231
RXF 393 = test system: RXF 393
NCI/ADR-RES = test system: NCI/ADR-RES
SF-295 = test system: SF-295

For O=C1Nc2ccccc2C1Cc1ccccc1 (stereo not given), the GI50 (UACC-257) was > 100 µM (inactive), the GI50 (SK-MEL-5) was 43.6 µM (inactive) and the GI50 (T47D) was 88.7 µM (inactive). For the same compound, the GI50 (HCT-15) was over 100 µM, the GI50 (SR) was > 100 µM (inactive) and the GI50 (SK-OV-3) was > 100 µM (inactive). For the same compound, the GI50 (RPMI-8226) was > 100 µM (inactive), the GI50 (MOLT-4) was > 100 µM (inactive) and the GI50 (HOP-92) was > 100 µM (inactive). For the same compound, the GI50 (SW-620) was > 100 µM (inactive), the GI50 (NCI-H460) was > 100 µM (inactive) and the GI50 (SNB-75) was 0.296 µM (active). For the same compound, the GI50 (EKVX) was 56.1 µM (inactive), the GI50 (M14) was > 100 µM (inactive) and the GI50 (U-251) was > 100 µM (inactive). For the same compound, the GI50 (K562) was > 100 µM (inactive), the GI50 (HL-60) was > 100 µM (inactive) and the GI50 (ACHN) was > 100 µM (inactive). The GI50 (COLO 205) was > 100 µM (inactive), the GI50 (LOX IMVI) was > 100 µM (inactive) and the GI50 (Malme-3M) was > 100 µM (inactive). For the same compound, the GI50 (SK-MEL-28) was > 100 µM (inactive), the GI50 (OVCAR-3) was > 100 µM (inactive) and the GI50 (NCI-H522) was > 100 µM (inactive). The GI50 (MDA-MB-435) was > 100 µM (inactive), the GI50 (Hs-578T) was > 100 µM (inactive) and the GI50 (PC-3) was > 100 µM (inactive). For the same compound, the GI50 (786-0) was > 100 µM (inactive), the GI50 (MDA-N) was > 100 µM (inactive) and the GI50 (IGROV-1) was > 100 µM (inactive). For the same compound, the GI50 (DU-145) was > 100 µM (inactive), the GI50 (HCC 2998) was > 100 µM (inactive) and the GI50 (TK-10) was > 100 µM (inactive). The GI50 (A498) was > 100 µM (inactive), the GI50 (NCI-H226) was > 100 µM (inactive) and the GI50 (OVCAR-4) was > 100 µM (inactive). The GI50 (SNB-19) was > 100 µM (inactive), the GI50 (HCT-116) was > 100 µM (inactive) and the GI50 (SK-MEL-2) was > 100 µM (inactive). For the same compound, the GI50 (KM12) was > 100 µM (inactive), the GI50 (OVCAR-5) was > 100 µM (inactive) and the GI50 (A549) was > 100 µM (inactive). For the same compound, the GI50 (HOP-62) was > 100 µM (inactive), the GI50 (NCI-H23) was > 100 µM (inactive) and the GI50 (SF-268) was > 100 µM (inactive). For the same compound, the GI50 (CAKI-1) was > 100 µM (inactive), the GI50 (OVCAR-8) was > 100 µM (inactive) and the GI50 (UO-31) was 78.5 µM (inactive). The GI50 (MCF7) was > 100 µM (inactive), the GI50 (HT-29) was > 100 µM (inactive) and the GI50 (UACC-62) was > 100 µM (inactive). For the same compound, the GI50 (SF-539) was > 100 µM (inactive) and the GI50 (CCRF-CEM) was > 100 µM (inactive).
For CCOC(=O)c1c(SCCCN2CCCCC2)n(-c2ccccc2)c(=S)n(-c2ccccc2)c1=O, the GI50 (SK-MEL-5) was 16.4 µM (inactive), the GI50 (T47D) was 16.7 µM (inactive) and the GI50 (SN12C) was 16.2 µM (inactive). For the same compound, the GI50 (HCT-15) was 17.4 µM, the GI50 (SR) was 22 µM (inactive) and the GI50 (RPMI-8226) was 6.67 µM (inactive). For the same compound, the GI50 (MOLT-4) was 7.26 µM (inactive), the GI50 (HOP-92) was 14.4 µM (inactive) and the GI50 (SW-620) was 17.7 µM (inactive). The GI50 (EKVX) was 27.8 µM (inactive), the GI50 (M14) was 16.5 µM (inactive) and the GI50 (U-251) was 16.9 µM (inactive). The GI50 (K562) was 5.48 µM (inactive), the GI50 (HL-60) was 2.62 µM (inactive) and the GI50 (ACHN) was 20.6 µM (inactive). For the same compound, the GI50 (COLO 205) was 16.4 µM (inactive), the GI50 (Malme-3M) was 16.3 µM (inactive) and the GI50 (SK-MEL-28) was 17.4 µM (inactive). The GI50 (OVCAR-3) was 16.7 µM (inactive), the GI50 (NCI-H522) was 19.3 µM (inactive) and the GI50 (MDA-MB-435) was 15.8 µM (inactive). The GI50 (Hs-578T) was 20.9 µM (inactive), the GI50 (PC-3) was 16.4 µM (inactive) and the GI50 (MDA-MB-231) was 19.4 µM (inactive). For the same compound, the GI50 (786-0) was 3.87 µM (inactive), the GI50 (RXF 393) was 18.3 µM (inactive) and the GI50 (MDA-N) was 15 µM (inactive). The GI50 (DU-145) was 16.4 µM (inactive), the GI50 (HCC 2998) was 17.3 µM (inactive) and the GI50 (TK-10) was 20.6 µM (inactive). The GI50 (A498) was 20.1 µM (inactive), the GI50 (NCI-H226) was 15.6 µM (inactive) and the GI50 (OVCAR-4) was 17.7 µM (inactive). For the same compound, the GI50 (SNB-19) was 16.7 µM (inactive), the GI50 (HCT-116) was 12.4 µM (inactive) and the GI50 (SK-MEL-2) was 16.7 µM (inactive). For the same compound, the GI50 (KM12) was 19.2 µM (inactive), the GI50 (OVCAR-5) was 17.7 µM (inactive) and the GI50 (A549) was 17.3 µM (inactive). The GI50 (HOP-62) was 33 µM (inactive), the GI50 (NCI-H23) was 18.6 µM (inactive) and the GI50 (SF-268) was 37.5 µM (inactive). The GI50 (OVCAR-8) was 19.3 µM (inactive), the GI50 (UO-31) was 15.5 µM (inactive) and the GI50 (MCF7) was 12.1 µM (inactive). For the same compound, the GI50 (HT-29) was 20.3 µM (inactive), the GI50 (UACC-62) was 4.28 µM (inactive) and the GI50 (SF-539) was 14.8 µM (inactive). The GI50 (CCRF-CEM) was 15.3 µM (inactive).
In the case of O=C(NNCC(O)COc1ccccc1)c1ccccc1 (stereo not given), the GI50 (UACC-257) is reported as > 100 µM (inactive), the GI50 (SK-MEL-5) is reported as 42 µM (inactive) and the GI50 (T47D) is reported as > 100 µM (inactive). The GI50 (SN12C) was > 100 µM (inactive), the GI50 (HCT-15) was over 100 µM and the GI50 (SK-OV-3) was > 100 µM (inactive). For the same compound, the GI50 (RPMI-8226) was > 100 µM (inactive), the GI50 (MOLT-4) was > 100 µM (inactive) and the GI50 (HOP-92) was > 100 µM (inactive). For the same compound, the GI50 (SW-620) was > 100 µM (inactive), the GI50 (SNB-75) was > 100 µM (inactive) and the GI50 (EKVX) was > 100 µM (inactive). The GI50 (M14) was > 100 µM (inactive), the GI50 (U-251) was > 100 µM (inactive) and the GI50 (K562) was > 100 µM (inactive). For the same compound, the GI50 (HL-60) was > 100 µM (inactive), the GI50 (ACHN) was > 100 µM (inactive) and the GI50 (COLO 205) was > 100 µM (inactive). For the same compound, the GI50 (LOX IMVI) was > 100 µM (inactive), the GI50 (Malme-3M) was > 100 µM (inactive) and the GI50 (SK-MEL-28) was > 100 µM (inactive). The GI50 (OVCAR-3) was > 100 µM (inactive), the GI50 (NCI-H522) was > 100 µM (inactive) and the GI50 (MDA-MB-435) was > 100 µM (inactive). For the same compound, the GI50 (PC-3) was > 100 µM (inactive), the GI50 (MDA-MB-231) was > 100 µM (inactive) and the GI50 (786-0) was > 100 µM (inactive). For the same compound, the GI50 (RXF 393) was > 100 µM (inactive), the GI50 (MDA-N) was > 100 µM (inactive) and the GI50 (IGROV-1) was > 100 µM (inactive). The GI50 (DU-145) was > 100 µM (inactive), the GI50 (HCC 2998) was > 100 µM (inactive) and the GI50 (TK-10) was > 100 µM (inactive). The GI50 (A498) was > 100 µM (inactive), the GI50 (NCI-H226) was > 100 µM (inactive) and the GI50 (OVCAR-4) was > 100 µM (inactive). For the same compound, the GI50 (SNB-19) was > 100 µM (inactive), the GI50 (HCT-116) was > 100 µM (inactive) and the GI50 (SK-MEL-2) was > 100 µM (inactive). For the same compound, the GI50 (KM12) was > 100 µM (inactive), the GI50 (OVCAR-5) was > 100 µM (inactive) and the GI50 (A549) was > 100 µM (inactive). The GI50 (HOP-62) was > 100 µM (inactive), the GI50 (NCI-H23) was > 100 µM (inactive) and the GI50 (CAKI-1) was > 100 µM (inactive). For the same compound, the GI50 (NCI/ADR-RES) was > 100 µM (inactive), the GI50 (OVCAR-8) was > 100 µM (inactive) and the GI50 (UO-31) was > 100 µM (inactive). The GI50 (MCF7) was > 100 µM (inactive), the GI50 (HT-29) was > 100 µM (inactive) and the GI50 (UACC-62) was > 100 µM (inactive). For the same compound, the GI50 (SF-295) was > 100 µM (inactive), the GI50 (SF-539) was > 100 µM (inactive) and the GI50 (CCRF-CEM) was > 100 µM (inactive).
With CN(C)CCSC1=Nc2ccc(Cl)cc2C(c2ccccc2Cl)=NC1 the GI50 (MOLT-4) was 33.3 µM (inactive), the GI50 (SNB-75) was 18.2 µM (inactive) and the GI50 (K562) was 20.5 µM (inactive). For the same compound, the GI50 (HL-60) was 19.3 µM (inactive), the GI50 (MDA-MB-435) was 13.8 µM (inactive) and the GI50 (Hs-578T) was 18.6 µM (inactive).
O=C1C=CC2(C=C1)CCNC1=C2C(=O)c2[nH]cnc2C1=O was tested, and the GI50 (Malme-3M) was 2.26 µM (inactive), the GI50 (IGROV-1) was 15.2 µM (inactive) and the GI50 (SNB-19) was 13.9 µM (inactive).
